Laboratory results: ChEMBL document CHEMBL4420076, “Amylin and calcitonin receptor agonist” (2017)
Numbered stars: 1 amine (or outer) side, 2 acyl side, 3 side chain; on linkers, the order of the positions; unused ones are H or OH. Peptide text beside a SMILES is read from it. * marks the point of attachment. C18 diacid = O=C(O)CCCCCCCCCCCCCCCCC(=O)*; γGlu = O=C(O)[C@H](CCC(=O)[*:2])N[*:1]

Tests used:
[1] = Solubility in 100 mM glycylglycine buffer at pH 3.0 incubated for 18 hrs by UPLC analysis; type: physicochemical
Calcitonin receptor = biological target: T1, Calcitonin receptor (Homo sapiens, UniProt P30988); assay: Agonist activity at human calcitonin receptor expressed in BHK570 cells assessed as increase in intracellular cAMP concentration incubated for 3 hrs in absence of albumin by CRE luciferase reporter gene assay; type: functional, cell-based
T1 sequence (P30988 whole entry): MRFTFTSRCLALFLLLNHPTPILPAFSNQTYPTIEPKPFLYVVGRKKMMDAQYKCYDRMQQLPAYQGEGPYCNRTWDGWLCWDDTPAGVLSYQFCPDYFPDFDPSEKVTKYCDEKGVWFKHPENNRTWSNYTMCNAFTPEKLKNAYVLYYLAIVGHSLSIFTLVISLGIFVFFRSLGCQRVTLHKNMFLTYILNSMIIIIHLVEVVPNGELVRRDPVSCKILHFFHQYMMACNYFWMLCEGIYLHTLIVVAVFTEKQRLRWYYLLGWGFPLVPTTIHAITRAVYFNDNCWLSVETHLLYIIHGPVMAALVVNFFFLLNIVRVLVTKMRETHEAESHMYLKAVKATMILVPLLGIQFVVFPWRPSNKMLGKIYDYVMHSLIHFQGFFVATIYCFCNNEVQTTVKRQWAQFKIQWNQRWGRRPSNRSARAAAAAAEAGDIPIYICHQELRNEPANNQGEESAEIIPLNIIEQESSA

[2] = Solubility in 100 mM bistrispropane buffer at pH 8.0 incubated for 18 hrs by UPLC analysis; type: physicochemical
[3] = Solubility in 100 mM glycylglycine buffer at pH 4.0 incubated for 18 hrs by UPLC analysis; type: physicochemical
[4] = Solubility in 100 mM bistrispropane buffer at pH 7.0 incubated for 18 hrs by UPLC analysis; type: physicochemical
[5] = biological target: T2, Amylin receptor AMY3; CALCR/RAMP3 (Homo sapiens, UniProt O60896+P30988); assay: Agonist activity at human amylin receptor expressed in BHK570 cells co-expressing RAMP3 assessed as increase in intracellular cAMP concentration incubated for 3 hrs in absence of albumin by CRE luciferase reporter gene assay; type: functional, cell-based
T2 sequence (P30988 whole entry): T1 sequence (P30988 whole entry)
T2 sequence (O60896 whole entry): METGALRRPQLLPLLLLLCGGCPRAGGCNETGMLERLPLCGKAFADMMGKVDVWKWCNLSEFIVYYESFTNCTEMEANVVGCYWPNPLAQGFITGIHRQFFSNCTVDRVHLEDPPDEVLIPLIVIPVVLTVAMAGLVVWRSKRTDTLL

[6] = biological target: T2, Amylin receptor AMY3; CALCR/RAMP3; assay: Displacement of [125I]-labeled rat amylin from human amylin receptor expressed in BHK tkts13 whole cells co-expressing RAMP3 incubated for 60 mins by scintillation proximity assay; type: cell-based
[7] = Solubility in 100 mM glycylglycine buffer at pH 5.0 incubated for 18 hrs by UPLC analysis; type: physicochemical
[8] = Solubility in 100 mM bistrispropane buffer at pH 7.5 incubated for 18 hrs by UPLC analysis; type: physicochemical
[9] = Solubility in 100 mM bistrispropane buffer at pH 6.5 incubated for 18 hrs by UPLC analysis; type: physicochemical
[10] = Solubility in 100 mM bistrispropane buffer at pH 6.0 incubated for 18 hrs by UPLC analysis; type: physicochemical

Row | Compound | solubility at 18 h [1] [µM] | EC50 (Calcitonin receptor) [pM] | solubility at 18 h [2] [µM] | solubility at 18 h [3] [µM] | solubility at 18 h [4] [µM] | EC50 [5] [pM] | IC50 [6] [pM] | solubility at 18 h [7] [µM] | solubility at 18 h [8] [µM] | solubility at 18 h [9] [µM] | solubility at 18 h [10] [µM]
1 | CC(C)C[C@H](NC(=O)[C@H](C)NC(=O)[C@H](C)NC(=O)[C@@H](NC(=O)[C@H](CO)NC(=O)[C@H](CC(C)C)NC(=O)[C@H](CCC(N)=O)NC(=O)[C@H](CO)NC(=O)[C@H](C)NC(=O)CC[C@H](NC(=O)CCCCCCCCCCCCCCCCC(=O)O)C(=O)O)[C@@H](C)O)C(=O)NCC(=O)N[C@@H](CCCNC(=N)N)C(=O)N[C@@H](CC(C)C)C(=O)N[C@@H](CO)C(=O)N[C@@H](C)C(=O)N[C@@H](CCC(N)=O)C(=O)N[C@@H](CC(C)C)C(=O)N[C@@H](Cc1cnc[nH]1)C(=O)N[C@@H](CCC(=O)O)C(=O)N[C@@H](CC(C)C)C(=O)N[C@@H](C)C(=O)N[C@H](C(=O)N[C@@H](CC(C)C)C(=O)N1CCC[C@H]1C(=O)N[C@@H](CCCNC(=N)N)C(=O)N[C@H](C(=O)N[C@@H](CCC(=O)O)C(=O)N[C@H](C(=O)NCC(=O)N[C@@H](CO)C(=O)NCC(=O)N[C@@H](CO)C(=O)N1CCC[C@H]1C(N)=O)[C@@H](C)O)[C@@H](C)O)[C@@H](C)O ({C18 diacid-γGlu}-ASQLSTAALGRLSAQLHELATLPRTETGSGSP-NH2) | ≥ 200 | 13 | ≥ 200 | ≥ 200 | ≥ 200 | 9 | 428 | ≥ 200 | ≥ 200 | ≥ 200 | ≥ 200
2 | CC[C@H](C)[C@H](NC(=O)[C@H](C)NC(=O)[C@@H](NC(=O)[C@H](CO)NC(=O)[C@H](CC(C)C)NC(=O)[C@H](CCC(=O)O)NC(=O)[C@H](CO)NC(=O)[C@H](C)NC(=O)[C@H](CCC(=O)O)NC(=O)CCCCCCCCCCCCCCCCC(=O)O)[C@@H](C)O)C(=O)N[C@@H](CC(C)C)C(=O)NCC(=O)N[C@@H](CCCNC(=N)N)C(=O)N[C@@H](CC(C)C)C(=O)N[C@@H](CO)C(=O)N[C@@H](C)C(=O)N[C@@H](CCC(=O)O)C(=O)N[C@@H](CC(C)C)C(=O)N[C@@H](Cc1cnc[nH]1)C(=O)N[C@@H](CCC(=O)O)C(=O)N[C@@H](CC(C)C)C(=O)N[C@@H](C)C(=O)N[C@H](C(=O)N[C@@H](CC(C)C)C(=O)N1CCC[C@H]1C(=O)N[C@@H](CCCNC(=N)N)C(=O)N[C@H](C(=O)N[C@@H](CCC(=O)O)C(=O)N[C@H](C(=O)NCC(=O)N1CCC[C@H]1C(=O)N[C@@H](CCC(=O)O)C(=O)N[C@@H](CO)C(=O)N1CCC[C@H]1C(N)=O)[C@@H](C)O)[C@@H](C)O)[C@@H](C)O ({C18 diacid}-EASELSTAILGRLSAELHELATLPRTETGPESP-NH2) | ≥ 200 | 5 | ≥ 200 |  | ≥ 200 | 16 | 417 | ≥ 200 | ≥ 200 | ≥ 200 | ≥ 200
3 | CC(C)C[C@H](NC(=O)[C@H](CCC(=O)O)NC(=O)[C@H](Cc1cnc[nH]1)NC(=O)[C@H](CC(C)C)NC(=O)[C@H](CCC(=O)O)NC(=O)[C@H](C)NC(=O)[C@H](CO)NC(=O)[C@H](CC(C)C)NC(=O)[C@H](CCCNC(=N)N)NC(=O)CNC(=O)[C@H](CC(C)C)NC(=O)[C@@H](NC(=O)[C@H](C)NC(=O)[C@@H](NC(=O)[C@H](CO)NC(=O)[C@@H](NC(=O)[C@H](CCC(=O)O)NC(=O)[C@H](CO)NC(=O)[C@H](C)NC(=O)[C@H](CCC(=O)O)NC(=O)CCCCCCCCCCCCCCCCC(=O)O)C(C)C)[C@@H](C)O)C(C)C)C(=O)N[C@@H](C)C(=O)N[C@H](C(=O)N[C@@H](CC(C)C)C(=O)N1CCC[C@H]1C(=O)N[C@@H](CCCNC(=N)N)C(=O)N[C@H](C(=O)N[C@@H](CCC(=O)O)C(=O)N[C@H](C(=O)NCC(=O)N1CCC[C@H]1C(=O)N[C@@H](CCC(=O)O)C(=O)N[C@@H](CO)C(=O)N1CCC[C@H]1C(N)=O)[C@@H](C)O)[C@@H](C)O)[C@@H](C)O ({C18 diacid}-EASEVSTAVLGRLSAELHELATLPRTETGPESP-NH2) | ≥ 200 | 14 | ≥ 200 |  | ≥ 200 | 20 | 824 |  | ≥ 200 | ≥ 200 | ≥ 200
